In ChEMBL document CHEMBL1157550, “Incorporation of fluorinated phenylalanine generates highly specific inhibitor of proteasome's chymotrypsin-like sites” (J Med Chem, 2010):
Calls of active or inactive are those of the source. The rule behind the calls is not given here.

Tests used:
[1] = target: Proteasome subunit beta type-5 (Homo sapiens) (UniProt P28074); assay: Inhibition of 26S proteasome beta 5 in human HEK293 cell lysate assessed as residual activity at […] after 1 hr
[2] = target: Proteasome Macropain subunit (Homo sapiens) (UniProt P49721); assay: Inhibition of 26S proteasome beta 2 in human HEK293 cell lysate assessed as residual activity at 13.5 uM after 1 hr; type: cell-free
[3] = target: Proteasome Macropain subunit (Homo sapiens) (UniProt P49721); assay: Inhibition of 26S proteasome beta 2 in human HEK293 cell lysate assessed as residual activity at 0.002 uM after 1 hr; type: cell-free
[4] = target: T1, Proteasome component C5 (Homo sapiens) (UniProt P20618); assay: Inhibition of 26S proteasome beta 1 in human HEK293 cell lysate assessed as residual activity at 0.002 uM after 1 hr; type: cell-free
T1 sequence (whole entry): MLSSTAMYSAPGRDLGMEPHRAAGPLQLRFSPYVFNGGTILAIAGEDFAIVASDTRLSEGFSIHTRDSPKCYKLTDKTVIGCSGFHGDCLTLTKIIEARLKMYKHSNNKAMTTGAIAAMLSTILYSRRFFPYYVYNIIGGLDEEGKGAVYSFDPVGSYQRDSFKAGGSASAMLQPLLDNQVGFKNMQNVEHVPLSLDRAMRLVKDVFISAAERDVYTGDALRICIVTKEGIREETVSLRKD

[5] = target: T1, Proteasome component C5 (Homo sapiens); assay: Inhibition of 26S proteasome beta 1 in human HEK293 cell lysate assessed as residual activity at 0.167 uM after 1 hr; type: cell-free
[6] = target: Proteasome Macropain subunit (Homo sapiens) (UniProt P49721); assay: Inhibition of 26S proteasome beta 2 in human HEK293 cell lysate assessed as residual activity at 0.006 uM after 1 hr; type: cell-free
[7] = target: Proteasome Macropain subunit (Homo sapiens) (UniProt P49721); assay: Inhibition of 26S proteasome beta 2 in human HEK293 cell lysate assessed as residual activity at 0.5 uM after 1 hr; type: cell-free
[8] = target: Proteasome subunit beta type-5 (Homo sapiens) (UniProt P28074); assay: Inhibition of 26S proteasome beta 5 in human HEK293 cell lysate assessed as residual activity at 0.006 uM after 1 hr
[9] = target: T1, Proteasome component C5 (Homo sapiens); assay: Inhibition of 26S proteasome beta 1 in human HEK293 cell lysate assessed as residual activity at 0.001 uM after 1 hr; type: cell-free
[10] = target: Proteasome Macropain subunit (Homo sapiens) (UniProt P49721); assay: Inhibition of 26S proteasome beta 2 in human HEK293 cell lysate assessed as residual activity at 0.019 uM after 1 hr; type: cell-free
[11] = target: T1, Proteasome component C5 (Homo sapiens); assay: Inhibition of 26S proteasome beta 1 in human HEK293 cell lysate assessed as residual activity at 13.5 uM after 1 hr; type: cell-free
[12] = target: Proteasome Macropain subunit (Homo sapiens) (UniProt P49721); assay: (§1) Inhibition of 26S proteasome beta 2 in human HEK293 cell lysate assessed as residual activity at […] after 1 hr; type: cell-free
[13] = target: Proteasome subunit beta type-5 (Homo sapiens) (UniProt P28074); assay: Inhibition of 26S proteasome beta 5 in human HEK293 cell lysate assessed as residual activity at 0.5 uM after 1 hr
[14] = target: T2, Proteasome Macropain subunit MB1 (Homo sapiens) (UniProt P28074); assay: Displacement of fluorescent labeled MV151 from 26S proteasome beta 5 in human HEK293 cell lysate assessed as disappearance of band at 0.1 to 1 uM after 1 hr by SDS-PAGE; type: cell-free
T2 sequence (whole entry): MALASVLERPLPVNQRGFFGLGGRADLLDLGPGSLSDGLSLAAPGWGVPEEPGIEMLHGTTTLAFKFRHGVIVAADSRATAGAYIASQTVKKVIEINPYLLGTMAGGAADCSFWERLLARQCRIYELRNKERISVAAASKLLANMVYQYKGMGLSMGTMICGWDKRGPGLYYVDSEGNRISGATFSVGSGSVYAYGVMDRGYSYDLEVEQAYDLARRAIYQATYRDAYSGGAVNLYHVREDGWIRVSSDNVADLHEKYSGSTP

[15] = target: Proteasome subunit beta type-5 (Homo sapiens) (UniProt P28074); assay: Inhibition of 26S proteasome beta 5 in human HEK293 cell lysate assessed as residual activity at 0.019 uM after 1 hr
[16] = target: T1, Proteasome component C5 (Homo sapiens); assay: Inhibition of 26S proteasome beta 1 in human HEK293 cell lysate assessed as residual activity at 0.006 uM after 1 hr; type: cell-free
[17] = target: Proteasome subunit beta type-5 (Homo sapiens) (UniProt P28074); assay: Inhibition of 26S proteasome beta 5 in human HEK293 cell lysate assessed as residual activity at 13.5 uM after 1 hr
[18] = target: T1, Proteasome component C5 (Homo sapiens); assay: Inhibition of 26S proteasome beta 1 in human HEK293 cell lysate assessed as residual activity at 0.019 uM after 1 hr; type: cell-free
[19] = target: Proteasome Macropain subunit (Homo sapiens) (UniProt P49721); assay: Inhibition of 26S proteasome beta 2 in human HEK293 cell lysate assessed as residual activity at 0.167 uM after 1 hr; type: cell-free
[20] = target: Proteasome Macropain subunit (Homo sapiens) (UniProt P49721); assay: Inhibition of 26S proteasome beta 2 in human HEK293 cell lysate assessed as residual activity at 0.001 uM after 1 hr; type: cell-free
[21] = target: T1, Proteasome component C5 (Homo sapiens); assay: (§2) Inhibition of 26S proteasome beta 1 in human HEK293 cell lysate assessed as residual activity at […] after 1 hr; type: cell-free
[22] = target: Proteasome Macropain subunit (Homo sapiens) (UniProt P49721); assay: Inhibition of 26S proteasome beta 2 in human HEK293 cell lysate assessed as residual activity at 1.5 uM after 1 hr; type: cell-free
[23] = target: Proteasome Macropain subunit (Homo sapiens) (UniProt P49721); assay: as §1; type: cell-free; remark: listed apart in the source
[24] = target: Proteasome subunit beta type-5 (Homo sapiens) (UniProt P28074); assay: Inhibition of 26S proteasome beta 5 in human HEK293 cell lysate assessed as residual activity at 0.002 uM after 1 hr
[25] = target: Proteasome subunit beta type-5 (Homo sapiens) (UniProt P28074); assay: Inhibition of 26S proteasome beta 5 in human HEK293 cell lysate assessed as residual activity at 0.001 uM after 1 hr
[26] = target: Proteasome subunit beta type-5 (Homo sapiens) (UniProt P28074); assay: Inhibition of 26S proteasome beta 5 in human HEK293 cell lysate assessed as residual activity at 0.167 uM after 1 hr
[27] = target: T1, Proteasome component C5 (Homo sapiens); assay: Inhibition of 26S proteasome beta 1 in human HEK293 cell lysate assessed as residual activity at 0.5 uM after 1 hr; type: cell-free
[28] = target: T1, Proteasome component C5 (Homo sapiens); assay: Inhibition of 26S proteasome beta 1 in human HEK293 cell lysate assessed as residual activity at 1.5 uM after 1 hr; type: cell-free
[29] = target: Proteasome subunit beta type-5 (Homo sapiens) (UniProt P28074); assay: Inhibition of 26S proteasome beta 5 in human HEK293 cell lysate assessed as residual activity at […] after 1 hr; remark: listed apart in the source
[30] = target: Proteasome subunit beta type-5 (Homo sapiens) (UniProt P28074); assay: Inhibition of 26S proteasome beta 5 in human HEK293 cell lysate assessed as residual activity at 1.5 uM after 1 hr
[31] = target: T1, Proteasome component C5 (Homo sapiens); assay: as §2; type: cell-free; remark: listed apart in the source
[32] = target: T1, Proteasome component C5 (Homo sapiens); assay: Displacement of fluorescent labeled MV151 from 26S proteasome beta 1 in human HEK293 cell lysate assessed as disappearance of band at 0.1 to 1 uM after 1 hr by SDS-PAGE; type: cell-free

Chain of Proteasome Macropain subunit (Homo sapiens) (P49721 whole entry): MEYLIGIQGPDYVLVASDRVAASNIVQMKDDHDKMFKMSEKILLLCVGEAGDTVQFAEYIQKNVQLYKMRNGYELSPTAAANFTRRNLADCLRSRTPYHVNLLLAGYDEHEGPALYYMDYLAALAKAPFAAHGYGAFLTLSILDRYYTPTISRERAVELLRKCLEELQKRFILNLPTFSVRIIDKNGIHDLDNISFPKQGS

Activity [1]: 14.3% | Activity [2]: 38.5% | Activity [3]: 93.1% | Activity [4]: 102% | Activity [5]: 45.2% | Activity [6]: 109% | Activity [7]: 103% | Activity [8]: 23.3% | Activity [9]: 99.9% | Activity [10]: 118% | Activity [11]: 0.5% | Activity [12]: 63.7% | Activity [13]: 7.7% | Activity [14]: Active | Activity [15]: 21.2% | Activity [16]: 93.2% | Activity [17]: 0.7% | Activity [18]: 92.3% | Activity [19]: 94.3% | Activity [20]: 100% | Activity [21]: 1.1% | Activity [22]: 78.5% | Activity [23]: 122% | Activity [24]: 41.3% | Activity [25]: 35.5% | Activity [26]: 8.8% | Activity [27]: 17% | Activity [28]: 3.1% | Activity [29]: 2.7% | Activity [30]: 5.4% | Activity [31]: 79.1% | Activity [32]: Active
SMILES: CC(C)C[C@H](NC(=O)[C@H](Cc1cc(C(F)(F)F)cc(C(F)(F)F)c1)NC(=O)c1cnccn1)B1OC2C[C@@H]3C[C@@H](C3(C)C)[C@]2(C)O1 (some centres not stated)
